Values joined by “and” are separate entries in the source; they are usually repeats but may differ in a detail not shown here. Equal values may be shown once. Read-outs that look alike come from different tables or passages of the source.
Tests used:
[1] = target: K-Ras G12C(GMP-PNP) binding to BRAF RBD (Homo sapiens (Human), UniProt P01116+P62937, G12C); assay: Disruption of BRAF RBD interaction with K-Ras (FRET / MOA assay), K-Ras G12C; format: biochemical
Method in brief: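 Cpd 10-pt 3-fold dilution, top 30 μM final; Ras/CypA/BRAF RBD mix 3 h, 25° C. Add anti-His Eu-W1024 10 nM + anti-GST APC 50 nM final, 1.5 h. Readout TR-FRET ratio decrease vs DMSO → IC50.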

[2] = test system: Capan-1 cells (K-Ras G12V); assay: CellTiter-Glo cell viability, Capan-1; format: cell-based, human; conditions: Homo sapiens, CAPAN-1, 120 h, read-out: Capan-1 Cell Viability IC50
Method in brief: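 Endpoint: CellTiter-Glo luminescence on day 5, following ~30 min at room temperature. Data as (sample/mean DMSO)×100, four-parameter logistic fit.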

[3] = test system: K-Ras G12C (NCI-H358 cells); assay: Potency assay: pERK in NCI-H358 cells; format: cell-based, human; conditions: Homo sapiens, read-out: pERK EC50 (H358 KRAS G12C)
Method in brief: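 Cells plated the day before were exposed for 4 h at 37° C, 5% CO2 to a 10-point, 3-fold DMSO dilution series (10 mM top stock), in duplicate. Phospho-ERK was read by AlphaLISA SureFire Ultra or by In-Cell Western with DRAQ5 DNA stain, and IC50 came from a 4-parameter sigmoidal fit.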

NCI-H358 (K-Ras G12C) = assay: CellTiter-Glo cell viability assay, NCI-H358; format: cell-based, human
Method in brief: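 After direct compound addition, plates were incubated to day 5 and equilibrated at room temperature for about 30 minutes before CellTiter-Glo reading. Values derive from luminescence relative to the DMSO mean, fitted with a four-parameter logistic model.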

[4] = Homo sapiens, NCI-H358, 120 h, 5-day treatment, read-out: H358 Cell Viability assay data (K-Ras G12C, IC50)

Chain of K-Ras G12C(GMP-PNP) binding to BRAF RBD (P01116 other isoform, or with tags, fused parts or gaps G12C): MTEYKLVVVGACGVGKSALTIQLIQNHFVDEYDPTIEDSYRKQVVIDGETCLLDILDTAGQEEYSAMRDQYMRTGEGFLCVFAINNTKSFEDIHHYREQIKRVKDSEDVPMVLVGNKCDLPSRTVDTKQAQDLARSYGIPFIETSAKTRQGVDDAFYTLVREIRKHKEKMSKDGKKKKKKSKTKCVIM
Chain of K-Ras G12C(GMP-PNP) binding to BRAF RBD (P62937 whole entry): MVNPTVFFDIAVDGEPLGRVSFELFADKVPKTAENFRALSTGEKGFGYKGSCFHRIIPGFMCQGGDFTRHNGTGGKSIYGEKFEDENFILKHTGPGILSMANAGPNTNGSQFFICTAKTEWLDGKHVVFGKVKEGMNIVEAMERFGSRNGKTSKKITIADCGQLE

IC50 ([1]; read-out: KRAS G12C FRET IC50) | EC50 ([3]; NCI-H358 cells, 4 hours) [nM] | IC50 (NCI-H358 (K-Ras G12C); 5-day treatment, read-out: H358 Cell Viability assay data (K-Ras G12C, IC50)) [µM] | IC50 (NCI-H358 (K-Ras G12C); [4]) [µM] | IC50 ([1]; KRAS G12C FRET IC50) [nM] | Structure (SMILES) | IC50 ([2]; K-Ras G12V, 5-day treatment) [nM] | IC50 [2] [nM] | EC50 ([3]; NCI-H358, 4 h) [nM] | IC50 (NCI-H358 (K-Ras G12C); Homo sapiens, NCI-H358, 120 h, read-out: H358 Cell Viability assay data (K-Ras G12C, IC50, uM), 5-day treatment) [µM]
10 to 100 nM and 100 to 1000 nM | < 5000 | 0.01 to 0.1 | < 0.01 |  | CCn1c(-c2cccnc2[C@H](C)OC)c2c3cc(ccc31)-c1cc(O)cc(c1)C[C@H](NC(=O)C1CCC3C1C3(F)F)C(=O)N1CCC[C@H](N1)C(=O)OCC(C)(C)C2 (stereo partly shown) [Compound A181] | > 10000 |  |  | 
10 to 100 nM | < 5000 |  | 0.01 to 0.1 |  | CCn1c(-c2cccnc2[C@H](C)OC)c2c3cc(ccc31)-c1cc(O)cc(c1)C[C@H](NC(=O)[C@@H]1[C@H]3C[C@H]3CN1C(C)=O)C(=O)N1CCC[C@H](N1)C(=O)OCC(C)(C)C2 [Compound A207] | > 10000 |  |  | 
 | < 5000 |  | < 0.01 | < 10 | CCn1c(-c2cccnc2[C@H](C)OC)c2c3cc(ccc31)-c1csc(n1)C[C@H](NC(=O)[C@H](C(C)C)N(C)C(=O)C1COC1)C(=O)N1CCC[C@H](N1)C(=O)OCC(C)(C)C2 [Compound A245] | 100 to 1000 |  |  | 
< 10 nM | < 5000 |  | < 0.01 |  | CCn1c(-c2cccnc2[C@H](C)OC)c2c3cc(ccc31)-c1cccc(c1)C[C@H](NC(=O)[C@H](C(C)C)N(C)C(=O)C1COC1)C(=O)N1CCC[C@H](N1)C(=O)OCC(C)(C)C2 [Compound A246] | 1000 to 10000 |  |  | 
10 to 100 nM | < 5000 |  | 0.01 to 0.1 |  | CCn1c(-c2cccnc2[C@H](C)OC)c2c3cc(ccc31)-c1cc(O)cc(c1)C[C@H](NC(=O)[C@H](C(C)C)N(C)C(=O)C1CC(=O)N(C3CC3)C1)C(=O)N1CCC[C@H](N1)C(=O)OCC(C)(C)C2 (stereo partly shown) [Compound A252] | 100 to 1000 |  |  | 
< 10 nM | < 5000 |  | < 0.01 |  | CCn1c(-c2cnccc2COC)c2c3cc(ccc31)-c1cc(O)cc(c1)C[C@H](NC(=O)[C@H](C(C)C)N(C)C(=O)N1CCNCC1)C(=O)N1CCC[C@H](N1)C(=O)OCC(C)(C)C2 [Compound A255] | > 10000 |  |  | 
< 10 nM | < 5000 |  | < 0.01 |  | CCn1c(-c2cccnc2[C@H](C)OC)c2c3cc(ccc31)-c1csc(n1)C[C@H](NC(=O)[C@H](C(C)C)N(C)C(=O)N1CCN(C(C)=O)CC1)C(=O)N1CCC[C@H](N1)C(=O)OCC(C)(C)C2 [Compound A291] | 10 to 100 |  |  | 
< 10 nM | < 5000 |  | < 0.01 |  | CCn1c(-c2cccnc2[C@H](C)OC)c2c3cc(ccc31)-c1csc(n1)C[C@H](NC(=O)[C@H](C(C)C)N(C)C(=O)N1C[C@@H](C)N(C)C[C@@H]1C)C(=O)N1CCC[C@H](N1)C(=O)OCC(C)(C)C2 [Compound A292] | 100 to 1000 |  |  | 
10 to 100 nM | < 5000 |  | < 0.01 |  | CCn1c(-c2cccnc2[C@H](C)OC)c2c3cc(ccc31)-c1csc(n1)C[C@H](NC(=O)[C@H](C(C)C)N(C)C(=O)N1CC(N3CCC3)C1)C(=O)N1CCC[C@H](N1)C(=O)OCC(C)(C)C2 [Compound A295] | 10 to 100 |  |  | 
< 10 nM | < 5000 |  | < 0.01 |  | CCn1c(-c2cccnc2[C@H](C)OC)c2c3cc(ccc31)-c1csc(n1)C[C@H](NC(=O)[C@H](C(C)C)N1CCCN(C)C1=O)C(=O)N1CCC[C@H](N1)C(=O)OCC(C)(C)C2 [Compound A317] | 1000 to 10000 |  |  | 
< 10 nM | < 5000 |  | < 0.01 |  | CCn1c(-c2cccnc2[C@H](C)OC)c2c3cc(ccc31)-c1cc(O)cc(c1)C[C@H](NC(=O)[C@@H]1[C@@H](C)CCCN1C(C)=O)C(=O)N1CCC[C@H](N1)C(=O)OCC(C)(C)C2 [Compound A324] | 1000 to 10000 |  |  | 

Structure (SMILES) | IC50 ([1]; read-out: KRAS G12C FRET IC50) | EC50 ([3]; NCI-H358 cells, 4 hours) [nM] | IC50 (NCI-H358 (K-Ras G12C); 5-day treatment, read-out: H358 Cell Viability assay data (K-Ras G12C, IC50)) [µM] | IC50 (NCI-H358 (K-Ras G12C); [4]) [µM] | IC50 ([1]; KRAS G12C FRET IC50) [nM] | IC50 ([2]; K-Ras G12V, 5-day treatment) [nM] | IC50 [2] [nM] | EC50 ([3]; NCI-H358, 4 h) [nM] | IC50 (NCI-H358 (K-Ras G12C); Homo sapiens, NCI-H358, 120 h, read-out: H358 Cell Viability assay data (K-Ras G12C, IC50, uM), 5-day treatment) [µM]
CCn1c(-c2cccnc2[C@H](C)OC)c2c3cc(ccc31)-c1csc(n1)C[C@H](NC(=O)[C@H](C(C)C)N(C)C(=O)[C@H]1CCN(S(C)(=O)=O)C1)C(=O)N1CCC[C@H](N1)C(=O)OCC(C)(C)C2 [Compound A237] | 10 to 100 nM |  |  |  |  |  | 1000 to 10000 | < 5000 | < 0.01

Source: patent US20250195521A1 (Revolution Medicines, Inc., priority 2020, published 2025)
